From patent publication US20220000880A1, “METHOD AND COMPOSITION EMBODIMENTS FOR TREATING ACUTE MYELOID LEUKEMIA” (Rigel Pharmaceuticals, Inc., priority 2018, published 2022)

Experiments:
AML cell lines = assay: cytotoxicity by Annexin V/PI staining against a panel of AML cell lines; format: cell-based; set-up: cytotoxic activity, agent alone: dose or concentration left out as unconfirmed
Experimental: In this example, the ability of 6-((5-fluoro-2-((3,4,5-trimethoxyphenyl)amino)pyrimidin-4-yl)amino)-2,2-dimethyl-2H-pyrido[3,2-b][1,4]oxazin-3(4H)-one (or a prodrug thereof) to synergistically enhance cytotoxic activity of venetoclax in AML cell lines is evaluated. Cytotoxic effects of venetoclax can be determined using Annexin V/PI staining against a panel of different AML cell lines.

[1] = test system: mice transplanted with HOXA9/MEIS1 cells; assay: mice transplanted with HOXA9/MEIS1 cells treated with fostamatinib-impregnated feed; format: in vivo, mouse; conditions: feed at 3 g/kg, 5 g/kg or 8 g/kg
Experimental: In this example, mice transplanted with HOXA9 MEIS1 or HOXA9 cells are treated with fostamatinib using feed impregnated with fostamatinib at 3 g/kg, 5 g/kg or 8 g/kg (AIN-76A rodent diet).

AML cell line xenograft = assay: mouse model xenografted with an AML cell line, tumor growth; format: in vivo; conditions: intraperitoneal injections; subcutaneous tumors ≥250 mm^3
Description: The activity of 6-((5-fluoro-2-((3,4,5-trimethoxyphenyl)amino)pyrimidin-4-yl)amino)-2,2-dimethyl-2H-pyrido[3,2-b][1,4]oxazin-3(4H)-one (or a prodrug thereof), alone, also can be evaluated. To do so, activity of 6-((5-fluoro-2-((3,4,5-trimethoxyphenyl)amino)pyrimidin-4-yl)amino)-2,2-dimethyl-2H-pyrido[3,2-b][1,4]oxazin-3(4H)-one can be tested in the appropriate mouse model xenografted with an AML cell line. Tumors can be injected subcutaneously (e.g., in the right flank) and allowed to grow until they reached an appropriate size (e.g., ≥250 mm^3). Intraperitoneal injections can be used to introduce the treatment. […] In some examples, significant differences in tumor volume between mice receiving 6-((5-fluoro-2-((3,4,5-trimethoxyphenyl)amino)pyrimidin-4-yl)amino)-2,2-dimethyl-2H-pyrido[3,2-b][1,4]oxazin-3(4H)-one alone and mice receiving 6-((5-fluoro-2-((3,4,5-trimethoxyphenyl)amino)pyrimidin-4-yl)amino)-2,2-dimethyl-2H-pyrido[3,2-b][1,4]oxazin-3(4H)-one in combination with venetoclax can be observed.

HOXA9/MEIS1 cells = assay: time-lapse microscopy and single-cell tracking of cell fate; format: cell-based
Description: The effect of Syk inhibition in HOXA9 and HOXA9/MEIS1 cells by monitoring the fate of individual cells and their progeny by time-lapse microscopy and single-cell tracking also can be carried out.

[2] = test system: AML samples expressing high levels of HOXA9 and MEIS1; assay: apoptosis measurement (Annexin V) in AML samples; format: cell-based, human; conditions: 1 μM, 5 μM and 10 μM for 24 hours; alone or in combination
Experimental: Isolation of bone marrow mononuclear cells from human bone marrow aspirates can be achieved by Ficoll density centrifugation (400×g, RT, 45 min). CD34+ bone marrow mononuclear cells can be isolated using the human CD34 MultiSort Kit (Miltenyi Biotec). […] The cells can be passed through a mesh to remove cell clumps and can then be incubated in MACS buffer, which can be supplemented with FcR Blocking Reagent, and CD34 MultiSort MicroBeads for a particular time and at a particular temperature (e.g., 30 minutes at 4° C.). Excess beads are removed by washing and then magnetic separation using LS columns is carried out. After elution, cells are washed once in MACS buffer and can be resuspended in SFEM supplemented with diverse cytokines. Flow cytometry can be used to assess the purity of the isolated cells. […] The Annexin V Apoptosis Detection Kit I (BD Bioscience) can be used to detect apoptotic cell death. Cells are harvested and washed once with PBS, and can be resuspended in Annexin V binding buffer (200 μl 1×) containing 5 μl Annexin-PE or Annexin-APC and incubated at room temperature in the dark. After washing (e.g., once with 1× Annexin binding buffer), cells are resuspended in 1× Annexin V binding buffer containing 7-AAD (5 μl) and incubated at room temperature in the dark. 1× Annexin V binding buffer (200 μl) is added and cells are analysed using a BD LSRFortessa flow cytometer.

CC1(C)CCC(CN2CCN(c3ccc(C(=O)NS(=O)(=O)c4ccc(NCC5CCOCC5)c([N+](=O)[O-])c4)c(Oc4cnc5[nH]ccc5c4)c3)CC2)=C(c2ccc(Cl)cc2)C1 [venetoclax, reference compound]
cytotoxic activity, agent alone (AML cell lines; venetoclax alone, concentrations ranging): only modest activity

COc1cc(Nc2ncc(F)c(Nc3ccc4c(n3)N(COP(=O)(O)O)C(=O)C(C)(C)O4)n2)cc(OC)c1OC [fostamatinib, 6-((5-fluoro-2-((3,4,5-trimethoxyphenyl)amino)pyrimidin-4-yl)amino)-2,2-dimethyl-3-oxo-2,3-dihydro-4H-pyrido[3,2-b][1,4]oxazin-4-yl)methyl dihydrogen phosphate]
survival of mice ([1]; longer treatment (e.g., 20 days)): significantly prolong the survival | percentage of leukemic cells ([1]; one week of treatment): reduce the percentage of leukemic cells

COc1cc(Nc2ncc(F)c(Nc3ccc4c(n3)NC(=O)C(C)(C)O4)n2)cc(OC)c1OC [6-((5-fluoro-2-((3,4,5-trimethoxyphenyl)amino)pyrimidin-4-yl)amino)-2,2-dimethyl-2H-pyrido[3,2-b][1,4]oxazin-3(4H)-one]
tumor growth, compound alone (AML cell line xenograft): partially inhibit tumor growth | effect on cytotoxic activity of venetoclax (AML cell lines; cells treated at different concentrations for e.g. 2 hours): markedly increase the cytotoxic activity of venetoclax | cytotoxic effects on its own (AML cell lines; compound (or prodrug) alone): absence of any substantial cytotoxic effects | cell death compared with cells treated with DMSO (HOXA9/MEIS1 cells): significant increase | sensitivity of AML samples with high HOXA9 and MEIS1 compared with samples with weak MEIS1 expression [2]: more sensitive
